From US8084457B2, “Pharmaceutically active 4,6-disubstituted aminopyrimidine derivatives as modulators of protein kinases” (Lead Discovery Center GmbH, priority 2003, dated 2011)

Key:
PDGFR = assay: General kinase assay, selectivity panel: PDGFR; assay type: biochemical; conditions: 10 μM of compound, in comparison to DMSO (0% inhibition)
Procedure, shortened: (§1)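 Radiometric filter-binding kinase assay with [γ-33P]ATP plus substrate, 1 h at room temperature, stopped with EDTA. Phosphorylated substrate captured on phosphocellulose filters and counted by scintillation. Values are % inhibition at 10 µM compound relative to DMSO (0%).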

cMet = cMet (Homo sapiens, UniProt P08581); assay: General kinase assay, selectivity panel: cMet; assay type: biochemical; conditions: 10 μM of compound, in comparison to DMSO (0% inhibition)
Procedure: (§2) The inhibitory effect of compounds according to the present invention on the activity of protein kinases, depicted in Table 1, can be measured according to the following protocol:
(§3) Pipettinq Sequence: • 1) Add 10 μl 4 fold concentrated Substrate+4 fold concentrated ATP in 3 fold concentrated Reaction Buffer to each well of Assay Plate • 2) Add 10 μl 4 fold concentrated inhibitor in 4% DMSO in H2O to each well except to C− and C+ wells • 3) Add 10 μl 4% DMSO in H2O to C− and C+ wells • 4) Add 10 μl 500 mM EDTA in H2O to − wells • 5) Add 10 μl 50 μCi/ml Adenosine 5′-[γ-^33P]triphosphate in H2O to each well • 6) Add 10 μl 4 fold concentrated kinase in Reaction Buffer to each well • 7) Incubate 1 hr at room temperature • 8) Add 10 μl 50 mM EDTA in H2O to each well except to C− wells • 9) Prepare MAPH plates by adding 200 μl 0.75% H3PO4 to each well • 10) Exhaust 0.75% H3PO4 using Millipore vacuum station • 11) Add 60 μl 0.75% H3PO4 to each well of MAPH Filter Plate • 12) Transfer 30 μl sample per well from Assay Plate to corresponding well of MAPH Filter Plate • 13) Incubate 30 min at room temperature • 14) Wash each well of MAPH Filter Plates 3× with 200 μl 0.75% H3PO4 using Millipore vacuum station. • 15) Add 20 μl Scintillation Liquid to each well of MAPH Filter Plate • 16) Seal MAPH Filter Plate • 17) Store MAPH Filter Plate 30 min in darkness • 18) Quantify radioactivity
(§4) The activity of these protein kinases is depicted as % inhibition in the presence of 10 μM of compound in comparison to DMSO (0% inhibition).

CDK1 = CDK1 (Homo sapiens, UniProt P06493); assay: General kinase assay, selectivity panel: CDK1; assay type: biochemical; conditions: 10 μM of compound, in comparison to DMSO (0% inhibition)
Sequence of CDK1 (P06493 whole entry, species assumed): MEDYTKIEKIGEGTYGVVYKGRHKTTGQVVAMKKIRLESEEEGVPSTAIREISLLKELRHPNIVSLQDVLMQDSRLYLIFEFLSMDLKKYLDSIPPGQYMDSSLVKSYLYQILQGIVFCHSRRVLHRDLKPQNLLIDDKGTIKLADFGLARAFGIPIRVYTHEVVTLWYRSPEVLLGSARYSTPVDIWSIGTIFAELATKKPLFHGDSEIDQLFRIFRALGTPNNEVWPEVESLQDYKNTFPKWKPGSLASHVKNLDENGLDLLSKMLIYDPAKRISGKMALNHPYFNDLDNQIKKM
Sequence of CDK1 (P14635 whole entry partner, species assumed): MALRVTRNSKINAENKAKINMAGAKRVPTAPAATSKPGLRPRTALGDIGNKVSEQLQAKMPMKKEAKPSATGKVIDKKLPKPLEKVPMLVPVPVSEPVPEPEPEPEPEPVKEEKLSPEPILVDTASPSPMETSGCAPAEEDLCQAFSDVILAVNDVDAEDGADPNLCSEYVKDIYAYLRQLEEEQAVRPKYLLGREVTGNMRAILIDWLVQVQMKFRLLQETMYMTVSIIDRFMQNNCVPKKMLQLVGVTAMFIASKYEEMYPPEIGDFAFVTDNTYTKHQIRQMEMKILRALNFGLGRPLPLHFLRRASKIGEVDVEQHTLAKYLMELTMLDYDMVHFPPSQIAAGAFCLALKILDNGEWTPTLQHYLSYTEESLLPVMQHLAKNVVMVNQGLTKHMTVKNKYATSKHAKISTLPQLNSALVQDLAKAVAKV
Procedure, shortened: as §1

EGFR = EGFR (Homo sapiens, UniProt P00533); assay: General kinase assay, selectivity panel: EGFR; assay type: biochemical; conditions: 10 μM of compound, in comparison to DMSO (0% inhibition)
Sequence of EGFR (P00533 25-1210, species assumed): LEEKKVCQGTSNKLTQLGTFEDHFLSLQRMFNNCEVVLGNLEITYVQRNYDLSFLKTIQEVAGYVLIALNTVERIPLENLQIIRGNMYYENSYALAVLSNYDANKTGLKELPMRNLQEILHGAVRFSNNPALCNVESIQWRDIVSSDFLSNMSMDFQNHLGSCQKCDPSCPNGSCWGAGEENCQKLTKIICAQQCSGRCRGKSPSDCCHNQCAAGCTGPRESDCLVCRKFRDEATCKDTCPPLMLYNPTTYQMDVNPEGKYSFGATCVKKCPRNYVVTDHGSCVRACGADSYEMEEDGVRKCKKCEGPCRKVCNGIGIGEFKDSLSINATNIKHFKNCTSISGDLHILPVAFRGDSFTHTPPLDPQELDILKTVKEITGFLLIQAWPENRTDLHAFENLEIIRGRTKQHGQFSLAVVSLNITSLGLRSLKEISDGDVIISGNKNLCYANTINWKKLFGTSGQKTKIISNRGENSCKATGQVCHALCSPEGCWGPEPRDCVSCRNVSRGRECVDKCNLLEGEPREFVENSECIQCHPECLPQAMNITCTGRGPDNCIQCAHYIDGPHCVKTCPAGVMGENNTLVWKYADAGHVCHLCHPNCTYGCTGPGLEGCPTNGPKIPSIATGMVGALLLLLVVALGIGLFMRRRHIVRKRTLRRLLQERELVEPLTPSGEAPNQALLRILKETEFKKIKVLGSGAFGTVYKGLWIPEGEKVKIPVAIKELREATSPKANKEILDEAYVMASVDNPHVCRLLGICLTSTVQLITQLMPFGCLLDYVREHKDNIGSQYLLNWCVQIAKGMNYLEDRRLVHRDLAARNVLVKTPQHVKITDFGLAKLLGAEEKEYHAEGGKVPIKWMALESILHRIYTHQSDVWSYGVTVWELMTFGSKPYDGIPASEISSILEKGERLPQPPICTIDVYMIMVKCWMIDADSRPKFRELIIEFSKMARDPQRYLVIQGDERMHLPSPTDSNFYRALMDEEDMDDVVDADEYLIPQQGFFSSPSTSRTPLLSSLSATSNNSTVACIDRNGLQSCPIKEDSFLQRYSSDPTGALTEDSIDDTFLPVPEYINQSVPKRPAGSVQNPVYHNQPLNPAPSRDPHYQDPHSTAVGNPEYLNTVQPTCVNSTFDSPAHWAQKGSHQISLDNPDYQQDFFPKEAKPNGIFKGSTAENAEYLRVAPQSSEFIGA
Procedure, shortened: as §1

c-Kit = c-Kit (Homo sapiens, UniProt P10721); assay: General kinase assay, selectivity panel: c-Kit; assay type: biochemical; conditions: 10 μM of compound, in comparison to DMSO (0% inhibition)
Sequence of c-Kit (P10721 26-976): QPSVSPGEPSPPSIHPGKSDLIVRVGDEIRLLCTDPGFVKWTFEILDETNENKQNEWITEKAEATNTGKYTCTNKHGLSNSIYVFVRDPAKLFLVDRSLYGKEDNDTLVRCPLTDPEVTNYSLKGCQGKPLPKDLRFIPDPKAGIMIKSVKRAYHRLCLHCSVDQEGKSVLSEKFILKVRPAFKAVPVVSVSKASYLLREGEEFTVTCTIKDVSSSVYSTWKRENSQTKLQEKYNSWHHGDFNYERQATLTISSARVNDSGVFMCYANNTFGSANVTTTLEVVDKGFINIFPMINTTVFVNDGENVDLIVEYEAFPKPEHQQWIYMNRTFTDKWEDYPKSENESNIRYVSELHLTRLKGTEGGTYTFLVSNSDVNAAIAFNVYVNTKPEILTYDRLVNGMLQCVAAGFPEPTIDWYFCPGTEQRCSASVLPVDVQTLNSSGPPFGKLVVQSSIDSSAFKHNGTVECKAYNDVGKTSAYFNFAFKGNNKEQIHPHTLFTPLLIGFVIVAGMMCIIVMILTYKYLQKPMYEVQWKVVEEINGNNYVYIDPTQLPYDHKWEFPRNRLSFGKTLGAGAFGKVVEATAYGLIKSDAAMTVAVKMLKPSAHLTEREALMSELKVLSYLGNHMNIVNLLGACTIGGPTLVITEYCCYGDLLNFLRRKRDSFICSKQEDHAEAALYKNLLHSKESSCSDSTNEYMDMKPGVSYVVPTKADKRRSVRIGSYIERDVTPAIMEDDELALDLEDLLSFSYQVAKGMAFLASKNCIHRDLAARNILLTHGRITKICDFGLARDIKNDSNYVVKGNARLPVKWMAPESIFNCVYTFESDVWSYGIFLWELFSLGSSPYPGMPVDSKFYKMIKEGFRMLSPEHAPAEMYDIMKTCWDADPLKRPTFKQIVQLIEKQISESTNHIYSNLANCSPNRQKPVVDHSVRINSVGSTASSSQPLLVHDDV
Procedure, shortened: as §1

Abl = Abl (Homo sapiens, UniProt P00519); assay: General kinase assay, selectivity panel: Abl; assay type: biochemical; conditions: 10 μM of compound, in comparison to DMSO (0% inhibition)
Procedure, shortened: as §1

GSK-3β = GSK-3β (Homo sapiens, UniProt P49841); assay: General kinase assay, selectivity panel: GSK-3β; assay type: biochemical; conditions: 10 μM of compound, in comparison to DMSO (0% inhibition)
Sequence of GSK-3β (P49841 whole entry, species assumed): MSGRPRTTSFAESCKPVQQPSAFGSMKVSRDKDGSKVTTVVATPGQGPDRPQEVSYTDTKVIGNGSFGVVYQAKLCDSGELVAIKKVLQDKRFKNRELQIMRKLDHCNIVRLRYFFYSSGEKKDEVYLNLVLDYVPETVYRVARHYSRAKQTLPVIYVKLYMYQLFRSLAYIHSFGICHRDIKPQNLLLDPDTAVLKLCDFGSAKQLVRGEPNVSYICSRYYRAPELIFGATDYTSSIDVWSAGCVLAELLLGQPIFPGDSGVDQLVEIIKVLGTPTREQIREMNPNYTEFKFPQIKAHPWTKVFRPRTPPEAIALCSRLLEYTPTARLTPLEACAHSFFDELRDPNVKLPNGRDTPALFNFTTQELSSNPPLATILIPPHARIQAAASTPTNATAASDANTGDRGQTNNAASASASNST
Procedure, shortened: as §1

c-Src = c-Src (Homo sapiens, UniProt P12931); assay: General kinase assay, selectivity panel: c-Src; assay type: biochemical; conditions: 10 μM of compound, in comparison to DMSO (0% inhibition)
Sequence of c-Src (P12931 whole entry, species assumed): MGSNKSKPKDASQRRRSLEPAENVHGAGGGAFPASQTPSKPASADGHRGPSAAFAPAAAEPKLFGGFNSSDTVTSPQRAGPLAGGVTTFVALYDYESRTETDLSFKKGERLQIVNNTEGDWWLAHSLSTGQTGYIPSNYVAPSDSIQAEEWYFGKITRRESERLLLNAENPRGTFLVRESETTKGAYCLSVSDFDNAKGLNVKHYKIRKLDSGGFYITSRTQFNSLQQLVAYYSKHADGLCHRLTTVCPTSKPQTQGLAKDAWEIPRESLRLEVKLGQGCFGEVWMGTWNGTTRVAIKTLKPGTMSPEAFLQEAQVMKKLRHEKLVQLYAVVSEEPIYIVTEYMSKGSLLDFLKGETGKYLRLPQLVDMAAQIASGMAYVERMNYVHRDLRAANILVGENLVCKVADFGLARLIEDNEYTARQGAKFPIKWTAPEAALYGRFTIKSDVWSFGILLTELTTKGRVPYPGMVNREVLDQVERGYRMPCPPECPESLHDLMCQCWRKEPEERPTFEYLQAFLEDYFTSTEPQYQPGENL
Procedure: as §2, §3, §4

p56 Lck = p56 Lck (Homo sapiens, UniProt P06239); assay: General kinase assay, selectivity panel: p56 Lck; assay type: biochemical; conditions: 10 μM of compound, in comparison to DMSO (0% inhibition)
Sequence of p56 Lck (P06239 whole entry): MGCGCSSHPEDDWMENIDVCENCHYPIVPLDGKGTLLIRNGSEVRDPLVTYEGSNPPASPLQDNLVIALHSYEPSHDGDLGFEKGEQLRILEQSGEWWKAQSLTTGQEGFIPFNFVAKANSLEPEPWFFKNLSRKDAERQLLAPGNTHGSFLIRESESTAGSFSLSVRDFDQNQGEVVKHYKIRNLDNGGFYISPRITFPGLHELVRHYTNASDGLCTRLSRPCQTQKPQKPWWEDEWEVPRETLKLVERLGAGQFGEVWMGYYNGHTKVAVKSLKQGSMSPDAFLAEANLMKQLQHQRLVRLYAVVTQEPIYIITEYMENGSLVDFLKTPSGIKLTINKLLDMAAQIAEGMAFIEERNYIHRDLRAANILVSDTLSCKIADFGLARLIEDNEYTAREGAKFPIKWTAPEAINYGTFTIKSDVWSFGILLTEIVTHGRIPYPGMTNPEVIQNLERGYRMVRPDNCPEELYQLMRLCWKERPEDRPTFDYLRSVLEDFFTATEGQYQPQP
Procedure, shortened: as §1

PM1 cells = assay: Growth assay using Alamar Blue; assay type: cell-based
Procedure: Growth Assay Using Alamar Blue™:
PM1 cells were seeded in 12-well plates at a density of 1.5×10^5 per well with RPMI 1640 containing 10% FCS (fetal calf serum), 1% L-Glutamine and 1% Na-Pyruvate (Sigma). Cells were incubated with compound for 2-3 days (37° C., 6% CO2) followed by subsequent splitting and renewing of compound-containing medium. At each of these time points an aliquot of cells served as data point for relative growth (given in % of the DMSO control [=100%]). The cell number was determined by addition of 10 μL Alamar Blue™ (Biozol) to 100 μL cell aliquots following the manufacturer's instructions.

CDK2/CyclinA = biological target: T1, CDK2/CyclinA (Homo sapiens, UniProt P24941); assay: Kinase assay determining CDK2/CyclinA activity; assay type: biochemical
T1 construct: purchased Proqinase
Procedure: Kinase Assays Determining CDK2/CyclinA and CDK5/p35 Activity:
Kinase assays were performed as described by the manufacturers recommendations (Proqinase for CDK2/CyclinA and Upsate for CDK5/p35).

RSK1 = RSK1 (Homo sapiens, UniProt Q15418); assay: General kinase assay, selectivity panel: RSK1; assay type: biochemical; conditions: 10 μM of compound, in comparison to DMSO (0% inhibition)
Procedure: as §2, §3, §4

HBV = HBV replication assay in HepG2-2.2.15 cells; assay type: cell-based
Procedure: To test anti—HBV-activity of compounds the HBV-producing cell line HepG2-2.2.15 (M. A. Sells, PNAS 1987, 84, 1005-1009) was used. 1.0×10^4 cells were seeded in 96-well microtiter plates in DMEM medium supplemented with 10% FCS. After incubation at 37° C. in 5% CO2 atmosphere for 24 hours the medium was replaced with fresh medium containing the appropriately diluted compound. 3 days later medium was replaced by freshly prepared inhibitor-containing medium and the cells were incubated for further 3 days. Subsequently 200 μl lysis buffer (50 mM Tris-Cl 7.5; 1 mM EDTA 8.0; 0.5% NP40) per well was added. To remove cell debris and […], lysate was centrifuged (15000 rpm, 10 min, 4° C.). Cellular and viral RNA was removed by addition of 2 μl of RNase. 100 μl of the samples were spotted onto an uncharged nylon membrane pre-wetted with PBS (phosphate-buffered saline) using a 96 well-blotting chamber (MINIfold Dot-Blot, Schleicher&Schüll). After further washing with 200 μl PBS per well the membrane was treated twice with 0.5 M NaOH, 1.5 M NaCl (2 min) and 4 times with 0.5 M Tris 7.5, 3 M NaCl (1 min). The nucleic acids were fixed by UV-treatment and used for hybridisabon with a radioactive HBV-fragment prepared from the overgenome-length HBV-plasmid pT-HBV1.3 (L. G. Guidotti et al., Journal of Virology 1995., 69(10), 6158-6169).
The fixed membrane was pre-hybridized in a standard hybridisation buffer (50% formamide, 5×SSPE, 10×Denhards, 1% SDS, 100 μg/ml salmon sperm DNA) for at least 3 hours at 42° C. and hybridised overnight against the labelled HBV-fragment. The preparation of the HBV-fragment with the “Random primers DNA labelling system” (Invitrogen) was done according to the manufacturer's instructions. Hybridized filter were washed at room temperature with 2×SSC, at 62° C. with 2×SSC, 0.5% SDS and at 62° C. with 0.5×SSC, 0.5% SDS. Each washing step was carried out twice. The intensity of the HBV-DNA was quantified using a phosphoimager (Fuji). […] Absorbance was monitored at 570 nm and 600 nm wavelength.

[1] = system: NFκB-dependent transcriptional activity; assay: NFκB-dependent transcriptional activity (NIH 3T3 75E 11/300D8 cell line); assay type: cell-based
From the text: NFκB-dependent Transcriptional Activity:
The used NIH 3T3 75E 11/300D8 cell line is described elsewhere (J. Eickhoff et al., Journal of Biological Chemistry, 2004, 279(10), 9642-9652).
It is known, that CDK9 regulates the NFκB-dependent transitional activity. With Compound 4, Compound 7 and Compound 30 studies were done, to evaluate their effect on NFκB-dependent transcriptional activity.

HCMV strain AD169 = assay: HCMV replication assay in HFF cells (EGFP); assay type: cell-based; conditions: strain AD 169 in HFF cells
Procedure: Human foreskin fibroblasts (HFF) cell culture were grown in DMEM containing 10% FCS. For HCMV-replication assays, HFF cells were infected with HCMV strain AD169 producing EGFP (HCMV AD169-GFP; 27). 1 h post infection, medium was changed with medium containing the indicated compound concentration (0.3 μM, 1 μM and 3 μM, respectively) After incubation of 7 days cells were lysed (in 25 mM Tris, pH 7.5, 2 mM DTT, 1% Triton X-100 and 10% glycerol) and analysed for EGFP content in a Wallac Victor fluorescence detector.

[2] = system: CDK9-dependent phosphorylation of RNA-polymerase II; assay: Determination of RNA polymerase II C-terminal domain phosphorylation (western blot, PM1 cells); assay type: cell-based
Procedure: Determination of RNA Polymerase II C-terminal Domain Phosphorylation: The phosphorylation status of RNA polymerase II C-terminal domain was determined by western blot techniques. PM1 cells were seeded in 6-well plates at a density of 5×10^5 per well. After over night incubation cells were treated with compound as indicated in the respective experiments. Cells were pelleted and lysed with 300 μL 3× Laemmli buffer followed by 30 min denaturing at 65° C. After separation of equal lysate volumes by SDS-PAGE the proteins were transferred to nitrocellulose membranes (Schleicher&Schuell) and probed with anti-[…] (H5), anti-[…] (H14) or RNA Poll II-antibodies purchased from Eurogentec and Santa Cruz, respectively. The amount of reactive protein was visualized by ECL detection methods (Amersham). In order to see, if the compounds according to the general formula (I) do have the intrinsic capacity to penetrate cells and act against cellular target proteins, especially CDK9, the effect of Compound 30 on CDK9-dependent phosphorylation of RNA-polymerase II was investigated.

PDGFR (% inhibition) (PDGFR) | CDK1 (% inhibition) (CDK1) | EGFR (% inhibition) (EGFR) | c-Kit (% inhibition) (c-Kit) | GSK-3β (% inhibition) (GSK-3β) | p56 Lck (% inhibition) (p56 Lck) | CDK2 inhibition (in words) (CDK2/CyclinA) | RSK1 (% inhibition) (RSK1) | Compound | cMet (% inhibition) (cMet) | Abl (% inhibition) (Abl) | c-Src (% inhibition) (c-Src) | effect on growth of PM1 cells (in words) (PM1 cells) | HBV replication (in words) (HBV) | TNF-α stimulated NFκB-dependent promoter activity ([1]; 1 μM final concentration, TNF-α stimulated) | NFκB-dependent promoter activity under non-stimulated conditions ([1]; non-stimulated conditions) | EC50 ([1]; titration) [µM] | HCMV replication (in words) (HCMV strain AD169) | molecular weight of RNA polymerase II [2] | serine 2 phosphorylation of RNA polymerase II ([2]; anti-SER2 (H5)) | serine 5 phosphorylation of RNA polymerase II ([2]; anti-SER5 (H14))
b (inhibition between 80 and 50%: b) | a (inhibition greater than 80%: a) | b (inhibition between 80 and 50%: b) | b (inhibition between 80 and 50%: b) | c (inhibition between 50 and 30%: c) | b (inhibition between 80 and 50%: b) |  |  | COc1ccccc1-c1cc(Nc2ccc(C(=O)N[C@@H]3CCCC[C@H]3N)cc2)ncn1 (racemic) [Compound 83] | b (inhibition between 80 and 50%: b) | c (inhibition between 50 and 30%: c) | b (inhibition between 80 and 50%: b) |  |  |  |  |  |  |  |  | 
c (inhibition between 50 and 30%: c) | a (inhibition greater than 80%: a) | b (inhibition between 80 and 50%: b) | c (inhibition between 50 and 30%: c) | b (inhibition between 80 and 50%: b) | b (inhibition between 80 and 50%: b) | tendency to inhibit potently | c (inhibition between 50 and 30%: c) | COc1ccccc1-c1cc(Nc2ccc(N3CCCC3=O)cc2)ncn1 [Compound 9] |  |  |  | affect severely |  |  |  |  |  |  |  | 
 |  |  |  |  |  | tendency to inhibit potently |  | COC(=O)CN(c1ccc(Nc2cc(-c3ccccc3OC)ncn2)cc1)S(=O)(=O)c1ccc(C)cc1 [Compound 28] |  |  |  | affect severely |  |  |  |  |  |  |  | 

Compound | PDGFR (% inhibition) (PDGFR) | CDK1 (% inhibition) (CDK1) | EGFR (% inhibition) (EGFR) | c-Kit (% inhibition) (c-Kit) | GSK-3β (% inhibition) (GSK-3β) | p56 Lck (% inhibition) (p56 Lck) | CDK2 inhibition (in words) (CDK2/CyclinA) | RSK1 (% inhibition) (RSK1) | cMet (% inhibition) (cMet) | Abl (% inhibition) (Abl) | c-Src (% inhibition) (c-Src) | effect on growth of PM1 cells (in words) (PM1 cells) | HBV replication (in words) (HBV) | TNF-α stimulated NFκB-dependent promoter activity ([1]; 1 μM final concentration, TNF-α stimulated) | NFκB-dependent promoter activity under non-stimulated conditions ([1]; non-stimulated conditions) | EC50 ([1]; titration) [µM] | HCMV replication (in words) (HCMV strain AD169) | molecular weight of RNA polymerase II [2] | serine 2 phosphorylation of RNA polymerase II ([2]; anti-SER2 (H5)) | serine 5 phosphorylation of RNA polymerase II ([2]; anti-SER5 (H14))
COc1ccccc1-c1cc(Nc2ccc(NC(=O)[C@@H]3CCCCN3)cc2)ncn1 [Compound 30] | c (inhibition between 50 and 30%: c) | a (inhibition greater than 80%: a) | a (inhibition greater than 80%: a) | b (inhibition between 80 and 50%: b) | c (inhibition between 50 and 30%: c) | b (inhibition between 80 and 50%: b) |  |  | c (inhibition between 50 and 30%: c) | b (inhibition between 80 and 50%: b) | b (inhibition between 80 and 50%: b) |  | inactive | able, to affect | no inhibition was observed | ~1 | showed inhibition | reduction | decreased | did not show any differences
